Results on 6 molecules are retold here after patent publication US8907110B2, “Benzodioxepin-3-one compounds as dyes or as fluorescent emitters” (Merck Patent GmbH, priority 2011, dated 2014).

Common to all, as to format: physicochemical
Data set [1] is described as follows: Absorption strength (absorption spectrum in ethanol). The settings on record: for λmax: absorption maximum, dilute solution; for λmax / Half-value width / intense absorption up to / spectral range covered compared with curcumin and beta-carotene: in ethanol; for E1 % value: extinction at the absorption maximum extrapolated to a concentration of 1 g/100 ml, ethanol; for Half-value width: half-value width of the absorption band. The method, then: The measure used for the absorption strength is the so-called E1% value, and the half-value width of the absorption band in relation to the absorption maximum λmax indicated. The E1% value indicates the extinction at the absorption maximum extrapolated to a concentration of 1 g/100 ml. To this end, an absorption spectrum of the substance in ethanol is recorded in dilute solution. The values are compared with the reference spectra of curcumin and beta-carotene.

Data set [2] in a line: Thermal stability by thermographic method (TGA). The settings on record: for Temperature at which 98% of the weight was still present: TGA, RT to 800° C., heating rate 10 K/min. The method, then:
The thermal stability is determined with the aid of the thermographic method (instrument TGA Q5000 V3.10 Build 258, temperature range RT to 800° C., heating rate 10 K/min).

The nature of data set [3]: Solubility determination in phenethyl benzoate (X-Tend 226). The method, then: The solubility determination was carried out in phenethyl benzoate (X-Tend 226): […]
Data set [4] can be described thus: Fluorescence measurements in ethanol. The settings on record: 0.00804-0.00820 mg/ml, cell thickness 1 cm. The method, then: The substance concentrations in ethanol indicated in the table are measured using an Aminco Bowman 2 fluorescence spectrometer (cell thickness 1 cm; excitation 220-600 nm; emission 220-800 nm; spectral gap width (excitation) 4 nm, (emission) 8 nm; recording speed 10 nm/min; step width (excitation) 5 nm, (emission) 4 nm.

Each structure is given as a SMILES string.

`CC1=C(/C=C/C(C)=C/C=C/C(C)=C/C=C/C=C(C)/C=C/C=C(C)/C=C/C2=C(C)CCCC2(C)C)C(C)(C)CCC1` [Beta-carotene, beta-carotene, reference compound]: in data set [1], the λmax was 453 nm, the E1 % value is 408 and the Half-value width result was “approx. 88 nm”. The “Temperature at which 98% of the weight was still present” value in data set [2] worked out at 84 °C.

For `COc1cc(/C=C/C(=O)CC(=O)/C=C/c2ccc(O)c(OC)c2)ccc1O` [Curcumin, curcumin, reference compound], in data set [1], the λmax is 426 nm, the E1 % value is listed as 1507 and the Half-value width result is “approx. 78 nm”. Further, in data set [2], the “thermal stability (in words)” value is listed as “not thermally stable” and the “Temperature at which 98% of the weight was still present” value was determined as 223 °C.

As for `COc1cc(OC)c(OC)cc1/C=C1\Oc2ccc(C)cc2O/C(=C\c2cc(OC)c(OC)cc2OC)C1=O` [Example 1, 7-methyl-2,4-bis[1-(2,4,5-trimethoxyphenyl)meth-(Z)-ylidene]benzo[b]-1,4-dioxepin-3-one], in data set [1], the λmax is 437 nm, the E1 % value is on record as 505, the Half-value width entry was “approx. 102 nm” and the “intense absorption up to” value is reported as “up to 539 nm”. Moreover, the “spectral range covered compared with curcumin and beta-carotene” value in data set [1] is “significantly greater spectral range”. In addition, the “Solubility in X-Tend 226” value in data set [3] is on record as 2.2%. Besides, the Emission in data set [4] was 412 nm. Moreover, in data set [2], the “thermal stability (in words)” value is on record as “excellent” and the “Temperature at which 98% of the weight was still present” value was 281 °C.

Take `COc1ccc(/C=C2\Oc3ccc(C)cc3O/C(=C\c3ccc(OC)cc3)C2=O)cc1` [Example 2, 2,4-bis[1-(4-methoxyphenyl)meth-(Z)-ylidene]-7-methylbenzo[b]-1,4-dioxepin-3-one]: the “intense absorption up to” value in data set [1] was “up to 478 nm”.

Turning to `COc1ccc(/C=C2\Oc3ccc(C)cc3O/C(=C\c3ccc(OC)c(OC)c3)C2=O)cc1OC` [Example 3, 2,4-bis[1-(3,4-dimethoxyphenyl)-meth-(Z)-ylidene]-7-methylbenzo[b]-1,4-dioxepin-3-one], in data set [1], the λmax stood at 369 nm; the E1 % value is listed as 515; the Half-value width entry is listed as “approx. 100 nm”; the “spectral range covered compared with curcumin and beta-carotene” value was “significantly greater spectral range”. The “Solubility in X-Tend 226” value in data set [3] was found to be 4.5%. In addition, in data set [4], the Emission was determined as 322 nm and the Excitation came out at 230 nm. In data set [2], the “thermal stability (in words)” value was “excellent” and the “Temperature at which 98% of the weight was still present” value was determined as 286 °C.

Turning to `CCCCN(CCCC)c1ccc(/C=C2\Oc3ccc(C)cc3O/C(=C\c3ccc(N(CCCC)CCCC)cc3)C2=O)cc1` [Example 8, 7-methyl-2,4-bis[1-(4-dibutylaminophenyl)meth-(Z)-ylidene]benzo[b]-1,4-dioxepin-3-one], in data set [1], the λmax was determined as 484 nm, the E1 % value is recorded as 571, the Half-value width result is recorded as “approx. 122 nm” and the “intense absorption up to” value is “up to 609 nm”. Moreover, the “spectral range covered compared with curcumin and beta-carotene” value in data set [1] is given as “significantly greater spectral range”. Moreover, the “Solubility in X-Tend 226” value in data set [3] stood at 5.0%. In addition, in data set [4], the Emission turned out to be 320 nm and the Excitation is on record as 260 nm. In data set [2], the “thermal stability (in words)” value was “excellent” and the “Temperature at which 98% of the weight was still present” value was 250 °C.
